From ChEMBL document CHEMBL5321281, “Synthesis and Biological Evaluation of Heterocyclic Ring-Fused 20(S)-Protopanaxadiol Derivatives as Potent Antiosteoporosis Agents” (J Med Chem, 2023)

Key:
BMMC [1] = assay: Cytotoxicity against C57/BL6 mouse BMMC cells assessed as reduction in cell viability at 10 uM incubated for 24 hrs by CCK-8 assay; format: toxicity, cell-based
BMMC [2] = assay: Anti-osteoclastogenic activity in C57/BL6 mouse BMMC cells assessed as inhibition of RANKL-induced osteoclast differentiation at 0.1 uM incubated for 5 to 7 days in presence of M-CSF by TRAP staining based microscopic analysis relative to control; format: functional; settings: time 5-7 day
BMMC [3] = assay: Anti-osteoclastogenic activity in C57/BL6 mouse BMMC cells assessed as inhibition of RANKL-induced osteoclast differentiation at 0.01 uM incubated for 5 to 7 days in presence of M-CSF by TRAP staining based microscopic analysis relative to control; format: functional; settings: time 5-7 day
BMMC [4] = assay: Anti-osteoclastogenic activity in C57/BL6 mouse BMMC cells assessed as inhibition of RANKL-induced osteoclast differentiation at 1 uM incubated for 5 to 7 days in presence of M-CSF by TRAP staining based microscopic analysis relative to control; format: functional; settings: time 5-7 day
BMMC [5] = assay: Anti-osteoclastogenic activity in C57/BL6 mouse BMMC cells assessed as inhibition of RANKL-induced osteoclast differentiation at 5 uM incubated for 5 to 7 days in presence of M-CSF by TRAP staining based microscopic analysis relative to control; format: functional; settings: time 5-7 day
BMMC [6] = assay: Anti-osteoclastogenic activity in C57/BL6 mouse BMMC cells assessed as inhibition of RANKL-induced osteoclast differentiation incubated for 5 to 7 days in presence of M-CSF by TRAP staining based microscopic analysis relative to control; format: functional, cell-based

SMILES	Activity (BMMC [1])	inhibition at 0.1 µM (BMMC [2])	inhibition at 0.01 µM (BMMC [3])	inhibition at 1 µM (BMMC [4])	inhibition at 5 µM (BMMC [5])	IC50 (BMMC [6])
CC(C)=CCC[C@](C)(O)[C@H]1CC[C@]2(C)[C@@H]1/C(=N/O)C[C@@H]1[C@@]3(C)Cc4cnc(C)nc4C(C)(C)[C@@H]3CC[C@]12C	>= 100%	61.1%	0%	–	–	–
CC(C)=CCC[C@](C)(O)[C@H]1CC[C@]2(C)[C@@H]1[C@H](O)C[C@@H]1[C@@]3(C)Cc4cnoc4C(C)(C)[C@@H]3CC[C@]12C	>= 100%	–	–	3.2%	71.5%	–
Cc1ncc2c(n1)C(C)(C)[C@@H]1CC[C@]3(C)[C@H](C[C@@H](O)[C@@H]4[C@@H]([C@@](C)(O)CCCC(C)C)CC[C@]43C)[C@@]1(C)C2	>= 100%	96%	9.2%	–	–	–
CC(C)=CCC[C@](C)(O)[C@H]1CC[C@]2(C)[C@@H]1[C@H](O)C[C@@H]1[C@@]3(C)Cc4cnc(-c5ccccc5)nc4C(C)(C)[C@@H]3CC[C@]12C	>= 100%	0%	–	45.5%	–	–
CC(C)=CCC[C@](C)(O)[C@H]1CC[C@]2(C)[C@@H]1[C@H](O)C[C@@H]1[C@@]3(C)Cc4cnn(-c5ccccc5)c4C(C)(C)[C@@H]3CC[C@]12C	>= 100%	–	–	0%	12.9%	–
CCOc1ncc2c(n1)C(C)(C)[C@@H]1CC[C@]3(C)[C@H](C[C@@H](O)[C@@H]4[C@@H]([C@@](C)(O)CCC=C(C)C)CC[C@]43C)[C@@]1(C)C2	86.9%	45.7%	–	94.1%	–	–
CC(C)=CCC[C@](C)(O)[C@H]1CC[C@]2(C)[C@@H]1[C@@H](O)C[C@@H]1[C@@]3(C)Cc4cnc(C)nc4C(C)(C)[C@@H]3CC[C@]12C	>= 100%	84.4%	0%	–	–	–
CC(C)=CCC[C@](C)(O)[C@H]1CC[C@]2(C)[C@@H]1[C@H](O)C[C@@H]1[C@@]3(C)Cc4cncnc4C(C)(C)[C@@H]3CC[C@]12C	>= 100%	51.9%	–	95.3%	100%	–
CC(C)=CCC[C@](C)(O)[C@H]1CC[C@]2(C)[C@@H]1[C@H](O)C[C@@H]1[C@@]3(C)Cc4cnc(N)nc4C(C)(C)[C@@H]3CC[C@]12C	>= 100%	51.2%	–	100%	–	–
CC(C)=CCC[C@](C)(O)[C@H]1CC[C@]2(C)[C@@H]1[C@H](O)C[C@@H]1[C@@]3(C)Cc4cnc(C)nc4C(C)(C)[C@@H]3CC[C@]12C	>= 100%	96.8%	34.5%	100%	–	–
CC(C)=CCC[C@](C)(O)[C@H]1CC[C@]2(C)[C@@H]1[C@H](O)C[C@@H]1[C@@]3(C)Cc4nccnc4C(C)(C)[C@@H]3CC[C@]12C	>= 100%	–	–	43.7%	100%	–
COc1ncc2c(n1)C(C)(C)[C@@H]1CC[C@]3(C)[C@H](C[C@@H](O)[C@@H]4[C@@H]([C@@](C)(O)CCC=C(C)C)CC[C@]43C)[C@@]1(C)C2	>= 100%	52.6%	–	93.7%	–	–
CC(C)=CC/C=C(\C)[C@H]1CC[C@]2(C)[C@@H]1[C@H](O)C[C@@H]1[C@@]3(C)Cc4cnc(C)nc4C(C)(C)[C@@H]3CC[C@]12C	>= 100%	96.8%	27.4%	–	–	–
CC(=O)O[C@@H]1C[C@@H]2[C@@]3(C)Cc4cnc(C)nc4C(C)(C)[C@@H]3CC[C@@]2(C)[C@]2(C)CC[C@H]([C@@](C)(O)CCC=C(C)C)[C@@H]12	>= 100%	62.2%	6.68%	–	–	–
CC(C)=CCC[C@](C)(O)[C@H]1CC[C@]2(C)[C@@H]1[C@H](O)C[C@@H]1[C@@]3(C)CC[C@H](O)C(C)(C)[C@@H]3CC[C@]12C	>= 100%	–	–	10.2%	63.9%	11.8 µM
CC(C)=CCC[C@](C)(O)[C@H]1CC[C@]2(C)[C@@H]1C(=O)C[C@@H]1[C@@]3(C)Cc4cnc(C)nc4C(C)(C)[C@@H]3CC[C@]12C	>= 100%	75.8%	8.68%	–	–	–
CC(C)=CCC[C@](C)(O)[C@H]1CC[C@]2(C)[C@@H]1[C@H](O)C[C@@H]1[C@@]3(C)Cc4cn[nH]c4C(C)(C)[C@@H]3CC[C@]12C	>= 100%	–	–	41.2%	84.8%	–
CC(C)=CCC[C@](C)(O)[C@H]1CC[C@]2(C)[C@@H]1[C@H](O)C[C@@H]1[C@@]3(C)Cc4nonc4C(C)(C)[C@@H]3CC[C@]12C	>= 100%	–	–	18.8%	64.2%	–
CCc1ncc2c(n1)C(C)(C)[C@@H]1CC[C@]3(C)[C@H](C[C@@H](O)[C@@H]4[C@@H]([C@@](C)(O)CCC=C(C)C)CC[C@]43C)[C@@]1(C)C2	>= 100%	90.4%	–	100%	–	–
